Reference: publication PMC10349806 (Nature Communications, 2023)
Values joined by “and” are separate entries in the source; they are usually repeats but may differ in a detail not shown here. Equal values may be shown once.

Biological target: T1, PfCRT variant Y276A (Plasmodium falciparum, UniProt Q9N623, A220S/I356T/K76T/M74I/N326S/N75E/Q271E/R371I/Y276A)
T1 sequence (Q9N623 1-424 M74I/N75E/K76T/A220S/Q271E/Y276A/N326S/I356T/R371I): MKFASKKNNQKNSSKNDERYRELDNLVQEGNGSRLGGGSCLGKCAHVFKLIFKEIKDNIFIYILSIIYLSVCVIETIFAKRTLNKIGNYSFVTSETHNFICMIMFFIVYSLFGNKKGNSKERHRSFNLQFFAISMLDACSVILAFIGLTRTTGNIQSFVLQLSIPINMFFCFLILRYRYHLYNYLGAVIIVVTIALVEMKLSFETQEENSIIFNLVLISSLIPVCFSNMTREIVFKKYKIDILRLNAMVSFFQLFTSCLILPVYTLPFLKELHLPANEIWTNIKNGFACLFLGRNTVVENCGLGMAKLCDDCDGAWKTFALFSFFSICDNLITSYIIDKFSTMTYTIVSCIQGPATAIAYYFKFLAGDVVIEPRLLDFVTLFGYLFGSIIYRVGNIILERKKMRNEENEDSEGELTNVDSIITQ
Experiment: CQ uptake assay, oocytes expressing Y276A
Type: cell-based
Description: Site-directed mutagenesis of PfCRT^Dd2 was performed as described using the megaprimer method with overlap extension[21],[54]. The primer pairs used are listed in Supplementary Table 6. Please note that a codon-optimized and oocyte-adapted version of PfCRT^Dd2 was used[22] (Supplementary Fig. 16). The resulting DNA fragment was cloned into the SP64T expression vector and verified by sequencing.
Oocytes were obtained as described previously. Briefly, adult (>2 years old) female X. laevis frogs (NASCO) were anesthetized in a cooled solution of ethyl 3-amino benzoate methanesulfonate (0.1%, w/v), followed by a surgical removal of parts of the ovary. The ovary lobes were carefully dissected and small pieces of oocytes were incubated in Ca^2+-free ND96 buffer (96 mM NaCl, 2 mM KCl, 1 mM MgCl2 buffered with 5 mM HEPES/NaOH, pH 7.5) supplemented with collagenase D (0.1%, w/v; Roche), BSA (0.5%, w/v), and 9 mm Na2HPO4 at 18 °C for 14-16 h while gentle shaking. After incubation, the oocytes were carefully washed several times with ND96 buffer (96 mM NaCl, 2 mM KCl, 1.8 mM CaCl2, 1 mM MgCl2 buffered with 5 mM HEPES/NaOH, pH 7.5) supplemented with 100 mg l^−1 gentamycin). Defolliculated and healthy-looking stage V-VI oocytes were manually selected for RNA microinjection. The RNA was generated as following: The codon-optimized sequences of PfCRT variants were cloned into the pSP64T expression vector. After vector linearization using the restriction endonucleases BamHI or SalI (New England Biolabs), transcription was performed using the in vitro SP6 mMessage mMachine Kit (Ambion)[34]. The obtained RNA was kept at −80 °C and diluted with nuclease-free water to a concentration of 0.6 μg μl^−1. Precision-bore glass capillary tubes (3.5-inch glass capillaries; Drummond Scientific Co.) were pulled on a vertical puller (P-87 Flaming/Brown micropipette puller, Sutter Instrument Co.), graduated, and placed on a microinjector (Nanoject II Auto-Nanoliter Injector, Drummond Scientific Co.). 50 nl of nuclease-free water alone (control oocytes) or 50 nl of 0.6 μg μl^−1 RNA were injected under stereomicroscopic control. Injected oocytes were incubated for 46–72 h at 18 °C with twice-daily buffer changes before usage in experiments.
Drug uptake assays were performed as described previously[21],[22],[24],[34]. […] The direction of radio-labeled drug transport is here from the mostly acidic extracellular solution (pH 4.5 or 6.0, as indicated) into the oocyte cytosol (pH ∼ 7.2), which corresponds to the efflux of drug from the acidic digestive vacuole (pH 5.2) into the parasite cytoplasm (pH 7.2). The topology of PfCRT in the oolemma is such that both the N- and C-terminus face the extracellular milieu[3],[22]. In the parasite, the N- and C-terminus face the lumen of the digestive vacuole. […] For determination of the amount of drug uptake for each oocyte, the reaction medium was removed and the oocytes were washed three times with 2 ml of ice-cold ND96 buffer. Each oocyte was individually transferred to a scintillation vial containing 5% sodium dodecyl sulfate (200 μl) for lysis. […] Oocytes that were injected with water instead of RNA were analyzed in parallel, representing the uptake of a drug by diffusion and/or endogenous permeation pathways. The resulting value represents the “background“ level of drug accumulation in oocytes (in-depth discussion in[22]). The specific PfCRT-mediated uptake was determined by subtracting the corresponding background value measured in water-injected oocytes from that of PfCRT-expressing oocytes. In all cases, at least three separate experiments were performed on oocytes from different frogs (biological replicate), and for each condition in an experiment, measurements were made from 10 oocytes per treatment. For pH 5.5, 6.0, and 6.5, ND96 was buffered with 5 mM MES/Tris base.

[1] = Y276A, 50 µM CQ, 1 h, mean ± SEM

CCN(CC)CCCC(C)Nc1ccnc2cc(Cl)ccc12 (stereo not drawn) [CQ, chloroquine]
Activity at pH 4.5 [1]: 1.50 ± 0.12 pmol h-1 oocyte-1
Activity at pH 6.0 [1]: 3.51 ± 0.35 pmol h-1 oocyte-1
R-value (Y276A, CQ transport at pH 4.5 / pH 6.0): 0.45 ± 0.09
Y276A transport activity pH 4.5 (pH 4.5, single replicates, Fig 1d left): 1.28 pmol oocyte-1 h-1 and 1.46 pmol oocyte-1 h-1
Y276A R-value (pH 4.5 vs pH 6.0, Fig 1d left): 0.34 and 0.66 and 0.36
Y276A transport activity pH 6.0 (pH 6.0, single replicates, Fig 1d left): 3.78 pmol oocyte-1 h-1 and 2.68 pmol oocyte-1 h-1 and 4.08 pmol oocyte-1 h-1
